Where “and” joins values, the source holds several entries; their conditions need not be identical. Equal values may be shown once. Toxic doses and inconclusive results are not listed.
System: L1210 leukemia ip in BDF1 mice, survival T/C
Experiment: NCI In Vivo Anticancer Drug Screen. Data for tumor model L1210 Leukemia (intraperitoneal) in B6D2F1 (BDF1) mice
Conditions: endpoint: mean survival time, higher = longer survival
Procedure, shortened: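 Transplanted-tumor mice were given test agent; controls received vehicle only. Survival readings from the two groups were divided (treated over control).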

[1] = dose: 100.0 mg/kg/injection, schedule: Q01DX009 (ip), vehicle: saline
[2] = dose: 100.0 mg/kg/injection, schedule: Q04DX003 (ip), vehicle: saline
[3] = dose: 200.0 mg/kg/injection, schedule: Q01DX009 (ip), vehicle: saline
[4] = dose: 200.0 mg/kg/injection, schedule: Q04DX003 (ip), vehicle: saline
[5] = dose: 400.0 mg/kg/injection, schedule: Q01DX009 (ip), vehicle: saline
[6] = dose: 400.0 mg/kg/injection, schedule: Q04DX003 (ip), vehicle: saline
[7] = dose: 100.0 mg/kg/injection, schedule: Q04DX002 (ip), vehicle: Klucel (hydroxypropylcellulose) (HPC)
[8] = dose: 200.0 mg/kg/injection, schedule: Q04DX002 (ip), vehicle: Klucel (hydroxypropylcellulose) (HPC)
[9] = dose: 100.0 mg/kg/injection, schedule: Q01DX009 (ip), vehicle: Klucel (hydroxypropylcellulose) (HPC)
[10] = dose: 100.0 mg/kg/injection, schedule: Q04DX003 (ip), vehicle: Klucel (hydroxypropylcellulose) (HPC)
[11] = dose: 200.0 mg/kg/injection, schedule: Q01DX009 (ip), vehicle: Klucel (hydroxypropylcellulose) (HPC)
[12] = dose: 200.0 mg/kg/injection, schedule: Q04DX003 (ip), vehicle: Klucel (hydroxypropylcellulose) (HPC)

In the case of `O=c1[n-]cc(F)c(=O)[nH]1.O=c1[n-]cc(F)c(=O)[nH]1.[NH2-].[NH2-].[Pt+4]`, the T/C (dose: 6.25 mg/kg/injection, schedule: Q03HX024 (ip), vehicle: saline with Tween-80) is reported as 97 % of control, the T/C (dose: 12.5 mg/kg/injection, schedule: Q03HX024 (ip), vehicle: saline with Tween-80) is reported as 101 % of control and the T/C (dose: 25.0 mg/kg/injection, schedule: Q03HX024 (ip), vehicle: saline with Tween-80) is reported as 99 % of control. For the same compound, the T/C (dose: 50.0 mg/kg/injection, schedule: Q03HX024 (ip), vehicle: saline with Tween-80) was 118 % of control, the T/C [1] was 115 % of control and 105 % of control and the T/C [2] was 108 % of control and 92 % of control and 97 % of control. For the same compound, the T/C [3] was 124 % of control and 114 % of control, the T/C [4] was 93 % of control and 113 % of control and 97 % of control and the T/C [5] was 109 % of control. For the same compound, the T/C [6] was 120 % of control and 124 % of control and 101 % of control.
With `O=C(Nc1ccc(Cl)cc1)NC1CC1` the T/C (dose: 62.5 mg/kg/injection, schedule: Q01DX009 (ip), vehicle: saline with Tween-80) was 91 % of control, the T/C (dose: 125.0 mg/kg/injection, schedule: Q01DX009 (ip), vehicle: saline with Tween-80) was 90 % of control and the T/C (dose: 250.0 mg/kg/injection, schedule: Q01DX009 (ip), vehicle: saline with Tween-80) was 95 % of control.
`O=C(O)Cc1ccc(Br)cc1` was tested, and the T/C (dose: 100.0 mg/kg/injection, schedule: Q04DX003 (ip), vehicle: saline with Tween-80) was 93 % of control, the T/C (dose: 200.0 mg/kg/injection, schedule: Q04DX003 (ip), vehicle: saline with Tween-80) was 96 % of control and the T/C (dose: 400.0 mg/kg/injection, schedule: Q04DX003 (ip), vehicle: saline with Tween-80) was 102 % of control.
With `CN(Cc1cnc2nc(N)nc(N)c2n1)c1ccc(C(=O)NC(CCC(=O)O)C(=O)O)cc1Cl` (centres undefined) the T/C (dose: 1.25 mg/kg/injection, schedule: Q01DX001 (ip), vehicle: saline) was 114 % of control, the T/C (dose: 2.0 mg/kg/injection, schedule: Q01DX015 (ip), vehicle: saline) was 291 % of control and the T/C (dose: 2.5 mg/kg/injection, schedule: Q01DX001 (ip), vehicle: saline) was 114 % of control. The T/C (dose: 5.0 mg/kg/injection, schedule: Q01DX001 (ip), vehicle: saline) was 118 % of control and the T/C (dose: 7.5 mg/kg/injection, schedule: Q01DX015 (ip), vehicle: saline) was 166 % of control.
`Cc1cc2c([N+](=O)[O-])c3cccnn3c2nn1` was tested, and the T/C (dose: 50.0 mg/kg/injection, schedule: Q04DX002 (ip), vehicle: Klucel (hydroxypropylcellulose) (HPC)) was 114 % of control, the T/C [7] was 111 % of control and the T/C [8] was 91 % of control.
For `Nc1nc(N)c2nc(CNc3ccc(C(=O)NC(CC(=O)O)C(=O)O)cc3)cnc2n1` (centres undefined), the T/C (dose: 1.56 mg/kg/injection, schedule: Q01DX Z (ip), vehicle: saline) was 114 % of control, the T/C (dose: 3.12 mg/kg/injection, schedule: Q01DX009 (ip), vehicle: saline) was 110 % of control and the T/C (dose: 3.13 mg/kg/injection, schedule: Q01DX Z (ip), vehicle: saline) was 108 % of control. For the same compound, the T/C (dose: 25.0 mg/kg/injection, schedule: Q01DX009 (ip), vehicle: saline) was 151 % of control, the T/C (dose: 25.0 mg/kg/injection, schedule: Q01DX Z (ip), vehicle: saline) was 172 % of control and the T/C (dose: 50.0 mg/kg/injection, schedule: Q01DX009 (ip), vehicle: saline) was 166 % of control. For the same compound, the T/C (dose: 50.0 mg/kg/injection, schedule: Q01DX Z (ip), vehicle: saline) was 118 % of control, the T/C [1] was 95 % of control and the T/C (dose: 100.0 mg/kg/injection, schedule: Q01DX Z (ip), vehicle: saline) was 114 % of control and 88 % of control. For the same compound, the T/C (dose: 200.0 mg/kg/injection, schedule: Q01DX Z (ip), vehicle: saline) was 95 % of control.
With `CC(=O)OC1c2ccccc2C2c3ccccc3C1C2Cl` (centres undefined) the T/C (dose: 176.0 mg/kg/injection, schedule: Q01DX001 (ip), vehicle: carboxymethylcellulose (CMC)) was 91 % of control, the T/C (dose: 264.0 mg/kg/injection, schedule: Q01DX001 (ip), vehicle: carboxymethylcellulose (CMC)) was 95 % of control and the T/C (dose: 400.0 mg/kg/injection, schedule: Q01DX001 (ip), vehicle: carboxymethylcellulose (CMC)) was 92 % of control. For the same compound, the T/C (dose: 600.0 mg/kg/injection, schedule: Q01DX001 (ip), vehicle: carboxymethylcellulose (CMC)) was 89 % of control.
With `CS(N)(=O)=O` the T/C (dose: 12.5 mg/kg/injection, schedule: Q04DX002 (ip), vehicle: saline) was 111 % of control, the T/C (dose: 25.0 mg/kg/injection, schedule: Q04DX002 (ip), vehicle: saline) was 96 % of control and the T/C (dose: 50.0 mg/kg/injection, schedule: Q04DX002 (ip), vehicle: saline) was 96 % of control.
`CCC(Br)C(Br)CC(Br)C(Br)CC(Br)C(Br)CCCCCCCC(=O)O` (centres undefined) was tested, and the T/C [9] was 96 % of control, the T/C [10] was 98 % of control and the T/C [11] was 88 % of control. For the same compound, the T/C [12] was 89 % of control, the T/C (dose: 400.0 mg/kg/injection, schedule: Q01DX009 (ip), vehicle: Klucel (hydroxypropylcellulose) (HPC)) was 88 % of control and the T/C (dose: 400.0 mg/kg/injection, schedule: Q04DX003 (ip), vehicle: Klucel (hydroxypropylcellulose) (HPC)) was 92 % of control.
In the case of `N/N=C/c1cc2ccccc2c2ccccc12`, the T/C [7] is reported as 97 % of control, the T/C [8] is reported as 91 % of control and the T/C (dose: 400.0 mg/kg/injection, schedule: Q04DX002 (ip), vehicle: Klucel (hydroxypropylcellulose) (HPC)) is reported as 87 % of control.
`O/N=C/c1ccc2ccccc2n1` was tested, and the T/C (dose: 18.75 mg/kg/injection, schedule: Q01DX009 (ip), vehicle: Klucel (hydroxypropylcellulose) (HPC)) was 105 % of control, the T/C (dose: 18.75 mg/kg/injection, schedule: Q04DX003 (ip), vehicle: Klucel (hydroxypropylcellulose) (HPC)) was 97 % of control and the T/C (dose: 37.5 mg/kg/injection, schedule: Q01DX009 (ip), vehicle: Klucel (hydroxypropylcellulose) (HPC)) was 100 % of control. For the same compound, the T/C (dose: 37.5 mg/kg/injection, schedule: Q04DX003 (ip), vehicle: Klucel (hydroxypropylcellulose) (HPC)) was 103 % of control, the T/C (dose: 75.0 mg/kg/injection, schedule: Q01DX009 (ip), vehicle: Klucel (hydroxypropylcellulose) (HPC)) was 113 % of control and the T/C (dose: 75.0 mg/kg/injection, schedule: Q04DX003 (ip), vehicle: Klucel (hydroxypropylcellulose) (HPC)) was 97 % of control and 103 % of control.
`CCCCCCC#CC(=O)OCCCCCC` was tested, and the T/C (dose: 100.0 mg/kg/injection, schedule: Q04DX002 (ip), vehicle: saline) was 108 % of control, the T/C (dose: 200.0 mg/kg/injection, schedule: Q04DX002 (ip), vehicle: saline) was 94 % of control and the T/C (dose: 400.0 mg/kg/injection, schedule: Q04DX002 (ip), vehicle: saline) was 97 % of control.
In the case of `COc1ccc(/C(=N/Nc2ccccc2)C(C)C(O)(C(F)(F)F)C(F)(F)F)cc1` (centres undefined), the T/C (dose: 50.0 mg/kg/injection, schedule: Q01DX009 (ip), vehicle: Klucel (hydroxypropylcellulose) (HPC)) is reported as 91 % of control, the T/C [9] is reported as 92 % of control and the T/C [10] is reported as 98 % of control. The T/C [11] was 89 % of control and the T/C [12] was 90 % of control.
`COc1ccc(OC)c(NC(=O)Nc2cc(Cl)ccc2C)c1` was tested, and the T/C [9] was 89 % of control and the T/C [11] was 93 % of control.
For `CC1(C)C2C=CC1C(CO)(CO)C2` (centres undefined), the T/C [1] was 105 % of control, the T/C [2] was 103 % of control and the T/C [3] was 97 % of control. The T/C [4] was 92 % of control, the T/C [5] was 100 % of control and the T/C [6] was 109 % of control.
`O=NN(CCF)C(=O)NCCCl` was tested, and the T/C (dose: 9.0 mg/kg/injection, schedule: Q01DX001 (ip), vehicle: Klucel (hydroxypropylcellulose) (HPC)) was 185 % of control and 220 % of control, the T/C (dose: 14.0 mg/kg/injection, schedule: Q01DX001 (ip), vehicle: Klucel (hydroxypropylcellulose) (HPC)) was 352 % of control and 355 % of control and the T/C (dose: 21.0 mg/kg/injection, schedule: Q01DX001 (ip), vehicle: Klucel (hydroxypropylcellulose) (HPC)) was 419 % of control and 564 % of control. For the same compound, the T/C (dose: 32.0 mg/kg/injection, schedule: Q01DX001 (ip), vehicle: Klucel (hydroxypropylcellulose) (HPC)) was 746 % of control.
`COC1CCC(OC)(C(=O)NN)O1` (centres undefined) was tested, and the T/C (dose: 100.0 mg/kg/injection, schedule: Q01DX001 (ip), vehicle: saline) was 95 % of control, the T/C (dose: 200.0 mg/kg/injection, schedule: Q01DX001 (ip), vehicle: saline) was 95 % of control and the T/C (dose: 400.0 mg/kg/injection, schedule: Q01DX001 (ip), vehicle: saline) was 102 % of control.

— PubChem BioAssay AID248 (DTP/NCI, 2004)
